Broadly, the melting point is the temperature of the solid-liquid transition.

We go through 41 compounds from a melting point compilation (Tetko et al.).

`Cc1ccc(-c2csc3nc(C(F)(F)F)cc(=O)n23)cc1` displayed a melting point of 186 °C.
The same measure for `Cn1c(=O)c(C2=NNC(=O)C2=Cc2ccccc2)c(O)c2ccccc21`: 283 °C; for `O/N=C1\C(c2ccccc2)=Nc2ccccc21`: 260 °C.
The same measure for `Cc1cc(Cl)c(C)cc1N`: 94 to 96 °C.
The same measure for `CC(=O)OC1CC2C(C)C(=O)C3(C4CC5C(C)(C)CCC(OC(C)=O)C5(C(OC(C)=O)O4)C13)C2OC(C)=O` (stereo unspecified): 265 °C.
In the case of `CCOC(=O)c1ccc(N/C=C2\C(=O)C3(C)CCC2C3(C)C)cc1` (stereo unspecified), the melting point is 105 °C.
The same measure for `CN(C)c1ccc(C#N)cc1`: 74 °C.
The same measure for `Cc1cc([N+](=O)[O-])ccc1N=C=O`: 83 °C; for `O=C(NC(CO)C(O)c1ccc([N+](=O)[O-])cc1)C(Cl)Cl` (stereo unspecified): 150 °C; for `O=S(=O)(O)c1ccc2cc(O)ccc2c1`: 125 °C.
The same measure for `O=C(O)Cc1c(Cl)cccc1C(F)(F)F`: 151 °C; for `CCCCCCCCCCCCCC(=O)OC(=O)CCCCCCCCCCCCC`: 53.4 °C; for `CCOC(=O)c1c(-c2ccccc2)[nH]c2cc3[nH]c(-c4ccccc4)c(C(=O)OCC)c3cc12`: over 140 °C.
`Cc1nc(-c2ccc(C(=O)O)cc2)no1` came in with a melting point of 262 to 264 °C.
For `O=C(O)Cn1c(=O)sc2cccc(Cl)c21`, the melting point came to 193 °C.
The same measure for `COc1cc([N+](=O)[O-])ccc1Br`: 104 °C; for `CCCCC#CCCCC`: -73 °C.
`Cc1ccc(N=Nc2cc(C(C)C)c(N=Nc3ccc(C)cc3)cc2C)cc1` registered a melting point of 140 °C.
The same measure for `O=C(/C=C/c1ccc(-c2ccc(Br)cc2)o1)c1ccccc1`: 141 to 142 °C.
The same measure for `NCCNC(=O)CCn1cnc2c(N)ncnc21`: 196 °C; for `Ic1cccc2nsnc12`: 96 to 97 °C; for `CC(C)(C)c1cnc(C(=O)Nc2cc(C(F)(F)F)cc(C(F)(F)F)c2)cn1`: 136 °C.
The same measure for `CN(C)C(=O)Nc1ccc(Oc2ccc(Cl)cc2)cc1`: 151 °C.
Consider `CC1(C)OC(=O)C(=C2CCCN2)C(=O)O1`, for which the melting point lay within 171 to 175 °C.
The same measure for `CC12CCC(C1(C)C)C(CCC(Br)c1ccccc1)(C1(CCC(Br)c3ccccc3)C(=O)C3(C)CCC1C3(C)C)C2=O` (stereo unspecified): 168 °C; for `O=C(Cl)c1ccc(Oc2ccccc2)nc1`: 80 to 82 °C.
The same measure for `Cc1cc2cc3c(C)cc(=O)oc3c(C)c2o1`: 230 to 234 °C.
The same measure for `CCCC(C)(COC(N)=O)COC(=O)NC(C)C` (stereo unspecified): 92 °C; for `O=C1N(c2ccccc2)C(=O)[C@@]2(Cl)C(c3ccccc3)(c3ccccc3)C[C@@]12Cl`: 160 °C; for `O=C(C=Cc1ccccc1)c1cccc(C(=O)C=Cc2ccccc2)c1`: 142 °C.
With `CC(=O)OC(OC(C)=O)c1ccccc1`, the melting point came out at 46 °C.
The same measure for `CC(C)CCCC(C)(C)C`: -105 °C; for `N#CC1(OC(=O)c2ccccc2)Cc2ccccc21` (stereo unspecified): 112 °C.
The same measure for `Clc1cc2c(oc3c(Cl)c(Cl)c(Cl)cc32)c(Cl)c1Cl`: 240 °C.
As to `O=CC(C=O)c1ccc(Cl)cc1`, the melting point lay in the range of 137 to 143 °C.
The same measure for `Cc1cc[nH]c1`: -48.4 °C; for `NCc1ccccc1O`: 127 to 131 °C; for `O=C(OCc1ccccc1)C(=O)OCc1ccccc1`: 80 to 82 °C.
The same measure for `C=CCOC1(C#Cc2ccccc2)Cc2ccccc21` (stereo unspecified): 50 °C; for `Cc1ccc(C(=O)c2ccccc2C(=O)O)cc1`: 146 °C; for `NC(=S)c1ccc(C(F)(F)F)cc1`: 136 to 137 °C.
